{"source": "patent US9775856B2", "about": "“C-glycosylpolyphenol antidiabetic agents, effect on glucose tolerance and interaction with beta-amyloid. therapeutic applications of the synthesized agent(s) and of Genista tenera ethyl acetate extracts containing some of those agents” (FACULDADE DE CIENCIAS DA UNIVERSIDADE DE LISBOA, priority 2012, dated 2017)", "key": {"[1]": {"tested_on": "mouse HII4E hepatoma cells", "test": "In vitro acute toxicity, MTT cell viability assay", "format": "cell-based", "details": "24 h exposure", "method": "Acute cytotoxicity measurements were performed by the MTT method. The 3-(4,5-dimethylthiazol-2-yl)-2,5-diphenyltetrazolium bromide (MTT) assay was used to quantify metabolically viable cells in all samples. Adherent cells (mouse HII4E hepatoma cells) were seeded onto 96-well plates, allowed to attach for 24 h and exposed to the test compound for the following 24 h. Positive control (hydrogen peroxide), negative control (DMSO) and chloramphenicol were also included. At 48 h of culture, MTT was added to the cells at a final concentration of 0.5 mg/mL, followed by an incubation period of 3 h to allow the formazan crystals to form. After incubation, medium was removed, cells were washed twice to remove traces of medium and un-metabolized MTT, and DMSO (100 μL) was added to each well. Solubilisation of formazan crystals was performed by agitation in a 96-well plate shaker for 20 min at room temperature. Absorbance of each well was quantified at 550 nm, using 620 nm as reference wavelength on a scanning multiwell spectrophotometer (automated microplate reader)."}, "[2]": {"tested_on": "STZ induced diabetic Wistar rats", "details": "previous research work; cited from earlier work"}, "[3]": {"test": "1H-NMR 2D DOSY diffusion coefficient", "format": "physicochemical", "details": "DOSY spectrum acquired on the G. tenera extract at 25° C.", "protocol": "NMR experiments were recorded on a Varian 400-MHz Mercury instrument. The basic VARIAN sequences were employed for 2D-TOCSY, 2D-NOESY, ^13C-HSQC, DOSY and STD experiments. […] A ^1H spectrum was acquired with a recycle delay of 60 s to achieve the complete relaxation of all the resonances at each scan."}, "[4]": {"test": "Solubility in PBS", "format": "physicochemical", "details": "pure compound in PBS"}, "[5]": {"biological_target": "T1, Aβ1-42 oligomers (Homo sapiens, UniProt P05067)", "T1 construct": "lyophilized Aβ1-42 was dissolved in 10 mM NaOD in D2O at a concentration of 160 μM", "T1 sequence (P05067 672-713)": "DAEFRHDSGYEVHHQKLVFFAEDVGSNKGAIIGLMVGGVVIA", "test": "NMR binding studies (STD-NMR, trNOESY) with beta-amyloid oligomers", "details": "Aβ1-42 80 uM, deuterated PBS pH 7.5", "protocol": "The selection was made through sample characterization by NMR spectroscopy, as previously described Immediately before use, lyophilized Aβ1-42 was dissolved in 10 mM NaOD in D2O at a concentration of 160 μM, then diluted 1:1 with 10 mM phosphate buffer saline, pH 7.4 containing 100 mM NaCl (PBS) and ethyl acetate extract of G. tenera or one of the tested compounds. […] The pH of each sample was verified with a Microelectrode (Mettler Toledo) for 5 mm NMR tubes and adjusted with NaOD and/or DCl. All pH values were corrected for isotope effect.\nNMR experiments were recorded on a Varian 400-MHz Mercury instrument. The basic VARIAN sequences were employed for 2D-TOCSY, 2D-NOESY, ^13C-HSQC, DOSY and STD experiments. For STD, a train of Gaussian-shaped pulses each of 50 ms was employed to saturate selectively the protein envelope; the total saturation time of the protein envelope was adjusted by the number of shaped pulses and was varied between 3 s and 0.3 s. A ^1H spectrum was acquired with a recycle delay of 60 s to achieve the complete relaxation of all the resonances at each scan."}}, "data": [{"smiles": "O=C(N[C@H](CO)[C@H](O)c1ccc([N+](=O)[O-])cc1)C(Cl)Cl", "note": "[Chloramphenicol, chloramphenicol]", "values": [{"measurement": "IC50", "setting": "[1]", "value": 143, "unit": "µg/mL"}]}, {"smiles": "OO", "note": "[Compound H2O2, hydrogen peroxide]", "values": [{"measurement": "IC50 in vitro acute toxicity", "setting": "[1]", "value": 2, "unit": "µg/mL"}]}, {"smiles": "C[S+](C)[O-]", "note": "[DMSO]", "values": [{"measurement": "IC50 in vitro acute toxicity", "setting": "[1]", "value": 199, "unit": "µg/mL"}]}, {"smiles": "O=c1cc(-c2ccc(O)cc2)oc2cc(O)cc(O)c12", "note": "[apigenin]", "values": [{"measurement": "blood glucose levels", "setting": "[2]", "value": "significantly lowered blood glucose levels"}]}, {"smiles": "COc1cc(-c2cc(=O)c3c(O)cc(O)cc3o2)ccc1O", "note": "[chrysoeriol]", "values": [{"measurement": "blood glucose levels", "setting": "[2]", "value": "significantly lowered blood glucose levels"}]}, {"smiles": "O=c1c(-c2ccc(O)cc2)coc2cc(O[C@@H]3O[C@H](CO)[C@@H](O)[C@H](O)[C@H]3O)cc(O)c12", "note": "[genistein-7-O-glucoside, Genistein 7-O-β-D-glucoside]", "values": [{"measurement": "diffusion coefficient", "setting": "[3]", "value": "2.65±0.035 10^−10 m^2/s"}, {"measurement": "solubility in PBS", "setting": "[4]", "value": "insolubility"}]}, {"smiles": "O=c1c(-c2ccc(O)cc2)coc2cc(O)cc(O)c12", "note": "[genistein]", "values": [{"measurement": "binding to Aβ1-42 oligomers (STD-NMR, trNOESY), words", "setting": "[5]", "value": "efficient Aβ oligomer ligand"}, {"measurement": "blood glucose levels", "setting": "[2]", "value": "significantly lowered blood glucose levels"}]}]}
